Results from ChEMBL document CHEMBL5107981, “A comprehensive comparative study on LSD1 in different cancers and tumor specific LSD1 inhibitors” (Eur J Med Chem, 2022).

Legend:
[1] = target: T1, Lysine-specific histone demethylase 1A (Homo sapiens, UniProt O60341)
Description: Inhibition of LSD1 (unknown origin)

[2] = Antiproliferative activity against human AML cell; format: functional, cell-based; settings: Acute myeloid leukemic cell
[3] = Antiproliferative activity against human SCLC cell; format: functional, cell-based; settings: Small cell lung cancer cell line
[4] = target: T1, Lysine-specific histone demethylase 1A; test: Inhibition of recombinant LSD1 (unknown origin) incubated for 1 hr

C/C(=N\NC(=O)c1cccc(S(=O)(=O)N2CCN(C)CC2)c1)c1cc(Cl)ccc1O
IC50 [1]: 13 nM

O=C(O)c1ccc(CN2CCC(CN[C@@H]3C[C@H]3c3ccccc3)CC2)cc1 [GSK2879552]
IC50 [2]: 24 nM
IC50 [3]: 24 nM

Oc1ccc(/C=C/c2cc(O)cc(O)c2)cc1 [RESVERATROL]
IC50 [4]: 15000 nM
